Source: PMC7252647, “Inhibition of the NAD salvage pathway in schistosomes impairs metabolism, reproduction, and parasite survival” (PLoS Pathogens, 2020)

System: T1, native SmNACE
T1 construct: native ectoenzyme on the outer tegument of live adult worms (2 male + 2 female per well)
Assay: fluorimetric NAD glycohydrolase assay on live adult worms, ε-ADPR release
Type: cell-based, Schistosoma mansoni
Conditions: ε-NAD substrate (20 μM in the assay), live worms (2 male + 2 female) in 200 μl HBSS, 37 °C
Text: fluorimetric NAD glycohydrolase assay on live adult worms, ε-ADPR release on native SmNACE | The IC50 of CMP1 on live parasites is indicated.

`Cc1occc1C(=O)N/N=C\c1ccc(O)c(O)c1` [CMP1, (Z)-N′-(3,4-Dihydroxybenzylidene)-2-methylfuran-3-carbohydrazide] gave an IC50 of 78 µM.
